From PMC10818749, “Toxicity Studies of Cardiac-Targeting Peptide Reveal a Robust Safety Profile” (Pharmaceutics, 2024) come the findings set out here.

Data set [1] concerns human left ventricular myocyte cell line. The data set can be described thus: Fluorescence-activated cell sorting (FACS) live-dead viability. It counts as cell-based. Particulars: 10 µM, 30 min incubation, live-dead stain, biological triplicates and technical quadruplicates (n = 4), vs no treatment or vehicle. How it is done:
Fluorescence-Activated Cell Sorting Assays: CTP was tested in a human left ventricular myocyte cell line (Celprogen, Torrance, CA, USA; cat #36044-15) for uptake and assessment of its effects on cell viability. Cells were plated onto 6-well plates at a density of 100,000 cells per well and incubated overnight at 37 °C/5% CO2. The following day media was replaced with fresh media containing 10 µM CTP-Cy5.5, or a random (RAN-CY5.5) peptide. A yellow live-dead stain (Invitrogen, Carlsbad, CA, USA; cat #L34968) was added to all wells, including the negative control or vehicle only treated controls, and cells were incubated for 30 min, after which media aspirated, cells washed 3× with pre-warmed phosphate-buffered saline (PBS), trypsinized, and collected. After collection, cells were washed once with PBS, fixed with 2% paraformaldehyde at room temperature for 10 min, washed once again and resuspended in 1000 µL of PBS. Fluorescence activated cell sorting (FACS) was performed using lasers selected for live-dead and Cy5.5 fluorophores, and 10,000 cells counted in Fortessa. The data generated were gated on the presence of the live-dead stain providing the percent viability of cells [(live/(live + dead cells)) × 100] after treatment with various peptides.

The target of a further data set is T1, ADRA2A (Homo sapiens, UniProt P08913).
T1 construct: host or cells: cAMP Hunter cell line
T1 sequence (P08913 whole entry): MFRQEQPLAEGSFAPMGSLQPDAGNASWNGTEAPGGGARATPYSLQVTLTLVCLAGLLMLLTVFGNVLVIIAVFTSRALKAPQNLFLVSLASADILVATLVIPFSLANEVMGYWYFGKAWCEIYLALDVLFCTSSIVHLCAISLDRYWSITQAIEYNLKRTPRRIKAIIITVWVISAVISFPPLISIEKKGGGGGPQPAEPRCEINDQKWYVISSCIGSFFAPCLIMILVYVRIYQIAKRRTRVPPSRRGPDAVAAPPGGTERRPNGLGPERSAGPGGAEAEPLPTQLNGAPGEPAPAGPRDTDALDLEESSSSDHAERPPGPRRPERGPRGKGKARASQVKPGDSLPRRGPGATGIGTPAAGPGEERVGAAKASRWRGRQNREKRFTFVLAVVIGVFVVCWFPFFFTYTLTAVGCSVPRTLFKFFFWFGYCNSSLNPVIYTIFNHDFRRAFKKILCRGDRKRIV
The data set is described as follows: ADRA2A GPCR cAMP modulation assay. It counts as cell-based. Particulars: compared to the controls. Here is the method: GPCR cAMP Modulation Assays: cAMP Hunter cell lines were grown, plated, and subjected to Eurofins’ DiscoverX HitHunter cAMP XS+ assay. Gs agonist activity, Gi agonist activity, and antagonist activity-induced assays were read using chemiluminescent signal detection. The percentage of activity was calculated for Gs and Gi agonist assays, and the percentage of inhibition was calculated for Gs antagonist assays. […]
cAMP Second ary Messenger Assay pound results in the release of calcium from intracellular stores and DiscoverX has developed a panel of cell lines stably expressing non- an increase in dye fluorescence that is measured in real-time. tagged GPCRs that endogenously signal through cAMP. […]
The enzyme is split into two complementary portions: Enzyme Ac-ceptor (EA) and Enzyme Donor (ED). […] Active enzyme can then convert a chemilumines-cent substrate, generating an output signal detectable on a standard The NHR is tagged with the ProLink™ (PK) component of our EFC microplate reader. assay system, and the SRCP domain is fused to the Enzyme Ac-ceptor component (EA) expressed in the nucleus. […]

Ends that are not written are not given here.

As to APWHLSSQYSRT [CTP], the cell viability result in data set [1] is “remained unchanged”. The “agonist or antagonist action” value on ADRA2A is “no significant action as either an agonist or antagonist”.
